Experimental data: patent publication US8927500B2, “Peptidomimetic macrocycles” (Aileron Therapeutics, Inc., priority 2012, dated 2015)
Where a SMILES comes first, the peptide text is derived from it. Bridges are numbered along the chain shown (N, C = ends). [ ]: non-standard residue; d: D form. Trp(6-Cl) = N[C@@H](Cc1c[nH]c2cc(Cl)ccc12)C(=O)O; R8 = C=CCCCCCC[C@@](C)(N)C(=O)O; hLeu = CC(C)CC[C@H](N)C(=O)O; S5 = C=CCCC[C@](C)(N)C(=O)O

Tests used:
MDM2 = MDM2 (Homo sapiens, UniProt Q00987); assay: Competitive fluorescence polarization assay for MDM2; assay type: binding; conditions: competitive FP assay, MDM2; for IC50: read-out: IC50 (MDM2); for Ki: read-out: Ki (MDM2)
MDMX = target: T1, MDMX (Homo sapiens, UniProt O15151); assay: Competitive fluorescence polarization assay for MDMX; assay type: binding; conditions: competitive FP assay; for IC50: read-out: IC50 (MDMX); for Ki: read-out: Ki (MDMX)
T1 sequence (O15151 1-125): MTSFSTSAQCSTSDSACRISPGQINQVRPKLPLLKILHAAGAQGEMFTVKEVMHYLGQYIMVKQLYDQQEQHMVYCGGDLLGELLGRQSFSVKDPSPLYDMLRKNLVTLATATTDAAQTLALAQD

Caspase 3 = Caspase 3 detection assay in SJSA1 cells; assay type: cell-based; conditions: 48 h, Caspase 3 activation over DMSO-treated cells; for caspase 0.3 uM: 0.3 uM peptide; for caspase 1 uM: 1 uM peptide; for caspase 3 uM: 3 uM peptide; for caspase 10 uM: 10 uM peptide; for caspase 30 uM: 30 uM peptide
SJSA-1 cells = assay: Cell lysis by peptidomimetic macrocycles (LDH release); assay type: cell-based; conditions: 1 h at 37C

Chain of MDM2 (Q00987 1-125): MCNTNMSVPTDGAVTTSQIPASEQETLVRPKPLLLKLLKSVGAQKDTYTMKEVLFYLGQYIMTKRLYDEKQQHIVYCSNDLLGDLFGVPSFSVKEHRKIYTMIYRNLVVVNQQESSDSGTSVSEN

Row | IC50 (MDM2) | Ki (MDM2) | IC50 (MDMX) | Ki (MDMX) | SMILES | caspase 0.3 uM (Caspase 3) | caspase 1 uM (Caspase 3) | caspase 3 uM (Caspase 3) | caspase 10 uM (Caspase 3) | caspase 30 uM (Caspase 3) | 6.25 uM % Lysed cells (1 h LDH) (SJSA-1 cells) | 25 uM % Lysed cells (1 h LDH) (SJSA-1 cells) | 50 uM % Lysed cells (1 h LDH) (SJSA-1 cells)
1 | 10 to 100 nM | < 10 nM | 10 to 100 nM | 10 to 100 nM | CC(=O)N[C@@H](CC(C)C)C(=O)N[C@H](C(=O)N[C@@H](Cc1ccccc1)C(=O)N[C@]1(C)CCCCCCC=CCCC[C@@](C)(C(=O)N[C@@H](C)C(=O)N[C@@H](C)C(=O)N[C@@H](C)C(=O)N[C@@H](C)C(=O)N[C@@H](C)C(=O)N[C@H](C)C(N)=O)NC(=O)[C@H](CC2CCC2)NC(=O)[C@H](CCC(N)=O)NC(=O)[C@H](C)NC(=O)[C@H](Cc2c[nH]c3ccccc23)NC(=O)[C@H](Cc2ccc(O)cc2)NC(=O)[C@H](CCC(=O)O)NC1=O)[C@@H](C)O (single isomer, unassigned) [compound 347] | 2 | 3 | 5 | 8 | 29 | 0% | 0% | 0%
2 | < 10 nM | < 10 nM | 10 to 100 nM | < 10 nM | CC(=O)N[C@@H](C)C(=O)N[C@@H](CC(C)C)C(=O)N[C@H](C(=O)N[C@@H](Cc1ccccc1)C(=O)N[C@]1(C)CCCCCCC=CCCC[C@@](C)(C(=O)N[C@@H](CO)C(=O)N[C@@H](C)C(=O)N[C@@H](C)C(=O)N[C@H](C)C(N)=O)NC(=O)[C@H](CC2CCC2)NC(=O)[C@H](CCC(N)=O)NC(=O)[C@H](C)NC(=O)[C@H](Cc2c[nH]c3ccccc23)NC(=O)[C@H](Cc2ccc(O)cc2)NC(=O)[C@H](CCC(=O)O)NC1=O)[C@@H](C)O (single isomer, unassigned) [compound 355] | 1 | 4 | 11 | 13 | 30 | 0% | 0% | 0%
3 | < 10 nM | < 10 nM | 10 to 100 nM | < 10 nM | CC(=O)N[C@@H](C)C(=O)N[C@@H](CC(C)C)C(=O)N[C@H](C(=O)N[C@@H](Cc1ccccc1)C(=O)N[C@]1(C)CCCCCCC=CCCC[C@@](C)(C(=O)N[C@@H](CO)C(=O)N[C@@H](C)C(=O)N[C@@H](C)C(=O)N[C@@H](C)C(=O)N[C@H](C)C(N)=O)NC(=O)[C@H](CC2CCC2)NC(=O)[C@H](CCC(N)=O)NC(=O)[C@H](C)NC(=O)[C@H](Cc2c[nH]c3ccccc23)NC(=O)[C@H](Cc2ccc(O)cc2)NC(=O)[C@H](CCC(=O)O)NC1=O)[C@@H](C)O (single isomer, unassigned) [compound 357] | 2 | 7 | 11 | 15 | 23 | 0% | 0% | 0%
4 | < 10 nM | < 10 nM | 10 to 100 nM | 10 to 100 nM | CC(=O)N[C@@H](C)C(=O)N[C@@H](C)C(=O)N[C@@H](CC(C)C)C(=O)N[C@H](C(=O)N[C@@H](Cc1ccccc1)C(=O)N[C@]1(C)CCCCCCC=CCCC[C@@](C)(C(=O)N[C@@H](CO)C(=O)N[C@@H](C)C(=O)N[C@@H](C)C(=O)N[C@@H](C)C(=O)N[C@H](C)C(N)=O)NC(=O)[C@H](CC2CCC2)NC(=O)[C@H](CCC(N)=O)NC(=O)[C@H](C)NC(=O)[C@H](Cc2c[nH]c3ccccc23)NC(=O)[C@H](Cc2ccc(O)cc2)NC(=O)[C@H](CCC(=O)O)NC1=O)[C@@H](C)O (single isomer, unassigned) [compound 359] | 3 | 9 | 11 | 13 | 23 | 0% | 0% | 0%
5 | 10 to 100 nM | < 10 nM | 100 to 1000 nM | 10 to 100 nM | CC(=O)N[C@@H](CC(C)C)C(=O)N[C@H](C(=O)N[C@@H](Cc1ccccc1)C(=O)N[C@]1(C)CCCCCCC=CCCC[C@@](C)(C(=O)N[C@@H](CO)C(=O)N[C@@H](C)C(=O)N[C@@H](CC(C)C)C(N)=O)NC(=O)[C@H](CC(C)C)NC(=O)[C@H](CCC(N)=O)NC(=O)[C@H](C)NC(=O)[C@H](Cc2c[nH]c3ccccc23)NC(=O)[C@H](Cc2ccc(O)cc2)NC(=O)[C@H](C)NC1=O)[C@@H](C)O [compound 4] (Ac-LTF[R8]AYWAQL[S5]SAL-NH2; staple 4-11) |  |  | 9 | 37 | 35 | −2% | 1% | 2%
6 | 100 to 1000 nM | 10 to 100 nM | 100 to 1000 nM | 10 to 100 nM | CC[C@H](C)[C@H](NC(=O)[C@H](C)NC(=O)[C@H](CO)NC(=O)[C@]1(C)CCCC=CCCCCCC[C@@](C)(NC(=O)[C@H](Cc2ccccc2)NC(=O)[C@@H](NC(=O)[C@H](CC(C)C)NC(C)=O)[C@@H](C)O)C(=O)N[C@@H](C)C(=O)N[C@@H](Cc2ccc(O)cc2)C(=O)N[C@@H](Cc2c[nH]c3ccccc23)C(=O)N[C@@H](C)C(=O)N[C@@H](CCC(N)=O)C(=O)N[C@@H](CC(C)C)C(=O)N1)C(N)=O [compound 8] (Ac-LTF[R8]AYWAQL[S5]SAI-NH2; staple 4-11) |  |  | 1 | 19 | 25 | −1% | 1% | 1%
7 | < 10 nM | < 10 nM | 100 to 1000 nM | 10 to 100 nM | CC(=O)N[C@@H](CC(C)C)C(=O)N[C@H](C(=O)N[C@@H](Cc1ccccc1)C(=O)N[C@]1(C)CCCCCC/C=C/CCC[C@@](C)(C(=O)N[C@@H](CO)C(=O)N[C@@H](C)C(=O)N[C@@H](C)C(N)=O)NC(=O)[C@H](CC(C)C)NC(=O)[C@H](CCC(N)=O)NC(=O)[C@H](C)NC(=O)[C@H](Cc2c[nH]c3cc(Cl)ccc23)NC(=O)[C@H](Cc2ccc(O)cc2)NC(=O)[C@H](C)NC1=O)[C@@H](C)O [compound 99] (Ac-LTF[R8]AY[Trp(6-Cl)]AQL[S5]SAA-NH2; staple (E) 4-11) | 1 |  | 7 | 31 | 33 | 1.5% | 2% | 3.5%
8 | 10 to 100 nM | < 10 nM | 100 to 1000 nM | 10 to 100 nM | CC(=O)N[C@@H](CC(C)C)C(=O)N[C@H](C(=O)N[C@@H](Cc1ccccc1)C(=O)N[C@]1(C)CCCCCC/C=C\CCC[C@@](C)(C(=O)N[C@@H](CO)C(=O)N[C@@H](C)C(=O)N[C@@H](C)C(N)=O)NC(=O)[C@H](CCC(C)C)NC(=O)[C@H](CCC(N)=O)NC(=O)[C@H](C)NC(=O)[C@H](Cc2c[nH]c3ccccc23)NC(=O)[C@H](Cc2ccc(O)cc2)NC(=O)[C@H](C)NC1=O)[C@@H](C)O [compound 114] (Ac-LTF[R8]AYWAQ[hLeu][S5]SAA-NH2; staple (Z) 4-11) | 1 |  | 6 | 28 | 34 | 3% | 4% | 9%
9 | < 10 nM | < 10 nM | 100 to 1000 nM | 10 to 100 nM | CC(=O)N[C@@H](CC(C)C)C(=O)N[C@H](C(=O)N[C@@H](Cc1ccccc1)C(=O)N[C@]1(C)CCCCCC/C=C/CCC[C@@](C)(C(=O)N[C@@H](CO)C(=O)N[C@@H](C)C(=O)N[C@@H](C)C(N)=O)NC(=O)[C@H](CCC(C)C)NC(=O)[C@H](CCC(N)=O)NC(=O)[C@H](C)NC(=O)[C@H](Cc2c[nH]c3ccccc23)NC(=O)[C@H](Cc2ccc(O)cc2)NC(=O)[C@H](C)NC1=O)[C@@H](C)O [compound 115] (Ac-LTF[R8]AYWAQ[hLeu][S5]SAA-NH2; staple (E) 4-11) | 1 |  | 10 | 26 | 32 | 0% | −1% | 6%
10 | < 10 nM | < 10 nM | 100 to 1000 nM | 10 to 100 nM | CC(=O)N[C@@H](CC(C)C)C(=O)N[C@H](C(=O)N[C@@H](Cc1ccccc1)C(=O)N[C@]1(C)CCCCCCC=CCCC[C@@](C)(C(=O)N[C@@H](CO)C(=O)N[C@H](C(=O)N[C@@H](CO)C(N)=O)C(C)C)NC(=O)[C@H](CC(C)C)NC(=O)[C@H](CCC(N)=O)NC(=O)[C@H](C)NC(=O)[C@H](Cc2c[nH]c3ccccc23)NC(=O)[C@H](Cc2ccc(O)cc2)NC(=O)[C@H](C)NC1=O)[C@@H](C)O [compound 121] (Ac-LTF[R8]AYWAQL[S5]SVS-NH2; staple 4-11) | 1 |  | 5 | 19 | 30 | 1% | 1% | 7%
